According to the NIST ThermoML archive (doi:10.1021/acs.jced.9b00794):
± gives the expanded uncertainty stated by the source.

Conditions: 100 kPa, Liquid, Vibrating tube method

Row | mass density (328.15 K) [kg/m3] | mass density (288.15 K) [kg/m3] | mass density (298.15 K) [kg/m3] | mass density (308.15 K) [kg/m3] | mass density (318.15 K) [kg/m3] | Compound
1 | 985.69 ± 0.05 | – | – | – | – | O [water]
2 | 1104.04 ± 0.1 | 1137.91 ± 0.11 | 1129.49 ± 0.11 | 1121.04 ± 0.11 | 1112.55 ± 0.1 | NC=O [formamide]
